Reference: ChEMBL document CHEMBL1201862, “PubChem BioAssay data set” (2004)
The source made the active and inactive calls.

Tests used:
[1] = target: Potassium voltage-gated channel subfamily KQT member 2 (Rattus norvegicus, UniProt O88943); assay: KCNQ2 potassium channel inhibitors, dose response, cell-based, automated electrophysiology, set II, rat KCNQ2 (AID 588637); format: functional
[2] = target: T1, Low molecular weight phosphotyrosine protein phosphatase (Homo sapiens, UniProt P24666); format: functional; conditions: read-out: IC50_Mean;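 further: Dose-response confirmation assay measuring inhibition of LMPTP enzyme activity by fluorescence intensity read-out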
T1 sequence (P24666 whole entry): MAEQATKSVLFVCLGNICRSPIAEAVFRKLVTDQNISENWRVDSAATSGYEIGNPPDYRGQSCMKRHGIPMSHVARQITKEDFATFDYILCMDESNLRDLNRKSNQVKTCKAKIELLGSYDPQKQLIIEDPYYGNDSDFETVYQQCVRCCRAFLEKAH

[3] = target: T2, Apoptotic protease-activating factor 1 (Homo sapiens, UniProt O14727); assay: SAR analysis of small molecule Activators of Apaf-1 in a Fluorescent assay.; format: functional; conditions: read-out: EC50_Mean;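 further: caspase-3 cleavage of fluorogenic Rh110 DEVD substrate downstream of apoptosome activation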
T2 sequence (O14727 whole entry): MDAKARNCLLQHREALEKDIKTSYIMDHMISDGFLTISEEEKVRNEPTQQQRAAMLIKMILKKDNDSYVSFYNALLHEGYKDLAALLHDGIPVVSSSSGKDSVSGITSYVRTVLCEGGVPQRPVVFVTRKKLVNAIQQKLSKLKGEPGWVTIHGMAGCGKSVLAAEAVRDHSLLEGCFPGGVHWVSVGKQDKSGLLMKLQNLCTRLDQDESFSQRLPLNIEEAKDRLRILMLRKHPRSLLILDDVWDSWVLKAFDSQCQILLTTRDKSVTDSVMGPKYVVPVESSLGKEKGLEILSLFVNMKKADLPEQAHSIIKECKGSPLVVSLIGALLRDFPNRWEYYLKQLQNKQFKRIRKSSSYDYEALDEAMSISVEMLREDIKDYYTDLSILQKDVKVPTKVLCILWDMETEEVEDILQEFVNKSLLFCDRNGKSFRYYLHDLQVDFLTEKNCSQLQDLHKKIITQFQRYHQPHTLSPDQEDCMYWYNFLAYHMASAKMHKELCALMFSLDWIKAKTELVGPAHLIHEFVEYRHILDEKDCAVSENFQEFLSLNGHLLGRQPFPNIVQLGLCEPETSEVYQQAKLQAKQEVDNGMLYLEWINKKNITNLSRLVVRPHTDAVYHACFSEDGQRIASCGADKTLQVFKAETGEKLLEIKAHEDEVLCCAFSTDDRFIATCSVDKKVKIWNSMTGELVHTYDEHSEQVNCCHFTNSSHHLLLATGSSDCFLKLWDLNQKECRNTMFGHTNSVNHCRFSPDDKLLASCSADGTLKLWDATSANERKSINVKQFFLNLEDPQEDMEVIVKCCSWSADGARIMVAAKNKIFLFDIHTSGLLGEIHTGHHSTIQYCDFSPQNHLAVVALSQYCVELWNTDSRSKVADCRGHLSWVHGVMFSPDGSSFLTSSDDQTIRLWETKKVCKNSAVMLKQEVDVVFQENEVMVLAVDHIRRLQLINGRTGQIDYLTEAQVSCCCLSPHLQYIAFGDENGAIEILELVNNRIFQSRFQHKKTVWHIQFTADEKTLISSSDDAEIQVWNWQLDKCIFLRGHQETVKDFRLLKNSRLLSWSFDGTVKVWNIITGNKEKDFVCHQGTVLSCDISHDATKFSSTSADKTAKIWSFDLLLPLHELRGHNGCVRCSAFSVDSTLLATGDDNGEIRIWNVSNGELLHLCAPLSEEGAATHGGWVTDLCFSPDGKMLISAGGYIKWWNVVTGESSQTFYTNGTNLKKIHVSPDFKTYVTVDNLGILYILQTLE

[4] = target: T3, High affinity choline transporter 1 (Homo sapiens, UniProt Q9GZV3); assay: CHT inhibitors, dose response, cell-based, 5-point CRC, membrane potential dye (AID 504840); format: functional
T3 sequence (Q9GZV3 whole entry): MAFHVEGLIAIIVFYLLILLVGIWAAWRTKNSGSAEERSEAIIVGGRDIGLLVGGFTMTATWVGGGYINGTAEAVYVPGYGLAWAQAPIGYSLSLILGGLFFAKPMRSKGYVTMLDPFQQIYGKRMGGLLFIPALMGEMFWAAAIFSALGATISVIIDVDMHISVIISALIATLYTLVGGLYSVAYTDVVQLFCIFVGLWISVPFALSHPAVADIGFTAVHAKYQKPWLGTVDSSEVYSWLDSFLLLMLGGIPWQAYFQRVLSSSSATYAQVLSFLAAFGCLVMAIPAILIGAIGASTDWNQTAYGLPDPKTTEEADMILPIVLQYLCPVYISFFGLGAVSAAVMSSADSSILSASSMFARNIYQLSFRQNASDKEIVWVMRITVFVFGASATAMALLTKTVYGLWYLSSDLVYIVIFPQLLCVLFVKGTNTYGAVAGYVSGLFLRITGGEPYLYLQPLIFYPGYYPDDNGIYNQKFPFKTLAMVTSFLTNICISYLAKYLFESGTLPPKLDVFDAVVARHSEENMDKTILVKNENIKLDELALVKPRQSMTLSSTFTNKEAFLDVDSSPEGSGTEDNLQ

[5] = target: T3, High affinity choline transporter 1; assay: CHT inhibitors, dose response, cell-based, 10-point CRC, membrane potential dye (AID 588401); format: functional;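 further: membrane potential dye fluorescence of choline-evoked depolarization via CHT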
[6] = target: T3, High affinity choline transporter 1; assay: inhibitors of CHT choline uptake, dose response, cell-based, 3H-choline uptake, CHT LV-AA trafficking mutant, CRC (AID 602208); format: functional
Melanocortin receptor 4 = Melanocortin receptor 4 (Homo sapiens, UniProt P32245); format: functional, cell-based;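 further: Cell-based assay with luminescence read-out, confirmatory dose-response testing for agonist activity of biased ligands at MC4R; human U2OS cells with tagged receptor and beta-arrestin; potency of agonists that increase receptor coupling to beta-arrestin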
Aminopeptidase N = target: T4, Aminopeptidase N (Plasmodium falciparum FcB1/Columbia, UniProt O96935); assay: P. falciparum M1AAP inhibitors, biochemical, fluorogenic H-Leu-NHMec substrate, 1536-well (AID 1445); set-up: species or system Plasmodium falciparum 3D7, 3D7
T4 sequence (O96935 whole entry): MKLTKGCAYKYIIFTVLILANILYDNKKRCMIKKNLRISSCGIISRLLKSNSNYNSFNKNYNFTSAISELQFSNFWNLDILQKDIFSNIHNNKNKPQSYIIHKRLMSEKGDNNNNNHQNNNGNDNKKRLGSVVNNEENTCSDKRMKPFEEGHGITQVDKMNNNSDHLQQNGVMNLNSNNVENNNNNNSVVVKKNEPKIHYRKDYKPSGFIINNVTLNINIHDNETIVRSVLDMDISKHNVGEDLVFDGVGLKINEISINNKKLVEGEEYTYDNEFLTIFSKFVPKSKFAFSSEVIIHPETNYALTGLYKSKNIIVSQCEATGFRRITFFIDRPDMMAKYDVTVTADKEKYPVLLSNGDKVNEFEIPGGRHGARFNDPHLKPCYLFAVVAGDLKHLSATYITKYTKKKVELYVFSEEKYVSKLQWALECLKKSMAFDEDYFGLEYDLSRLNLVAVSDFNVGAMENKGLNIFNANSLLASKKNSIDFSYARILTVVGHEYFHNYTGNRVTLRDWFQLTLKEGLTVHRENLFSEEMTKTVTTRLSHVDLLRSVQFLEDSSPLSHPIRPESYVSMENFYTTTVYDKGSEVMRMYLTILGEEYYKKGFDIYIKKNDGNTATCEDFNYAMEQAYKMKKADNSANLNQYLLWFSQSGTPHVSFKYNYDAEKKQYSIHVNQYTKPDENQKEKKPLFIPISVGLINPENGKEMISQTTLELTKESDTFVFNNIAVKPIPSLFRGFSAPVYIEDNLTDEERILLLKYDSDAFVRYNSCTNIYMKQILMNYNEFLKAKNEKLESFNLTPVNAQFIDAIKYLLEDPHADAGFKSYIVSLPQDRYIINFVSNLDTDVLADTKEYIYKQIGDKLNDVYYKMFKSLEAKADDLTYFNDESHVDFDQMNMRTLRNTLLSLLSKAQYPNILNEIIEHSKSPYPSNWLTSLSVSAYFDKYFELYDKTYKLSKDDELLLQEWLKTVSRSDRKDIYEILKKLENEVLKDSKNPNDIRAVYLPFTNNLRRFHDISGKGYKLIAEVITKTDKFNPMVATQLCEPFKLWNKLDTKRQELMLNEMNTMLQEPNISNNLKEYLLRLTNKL

[7] = target: Mitochondrial peptide methionine sulfoxide reductase (Bos taurus, UniProt P54149); format: functional;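 further: absorbance read-out, biochemical high-throughput dose-response screen for MsrA inhibitors, confirmatory; recombinant bovine MsrA coupled to E. coli TrxB with NADPH and selenocystamine; potency is for inhibitors of MsrA activity on DMSO substrate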
[8] = target: Tyrosine-protein phosphatase non-receptor type 11 (Homo sapiens, UniProt Q06124); assay: SHP2 phosphatase inhibition, dose response, selectivity assay for STEP inhibitor project, biochemical (AID 602367); format: functional; conditions: read-out: IC50_Mean
[9] = target: Tyrosine-protein phosphatase non-receptor type 5 (Homo sapiens, UniProt P54829); assay: STEP phosphatase inhibitors, confirmation, biochemical, fluorescence intensity, uHTS hits (AID 602372); format: functional; conditions: read-out: IC50_Mean
[10] = target: Dual specificity protein phosphatase 3 (Homo sapiens, UniProt P51452); assay: VHR phosphatase inhibition, dose response, selectivity assay for STEP inhibitor project, biochemical (AID 602374); format: functional; conditions: read-out: IC50_Mean
Caspase-6 = target: T5, Caspase-6 (Homo sapiens, UniProt P55212); assay: human caspase-6 inhibitors, dose response, biochemical, VEID-R110 fluorescence, cherry-pick (AID 720632)
T5 sequence (P55212 whole entry): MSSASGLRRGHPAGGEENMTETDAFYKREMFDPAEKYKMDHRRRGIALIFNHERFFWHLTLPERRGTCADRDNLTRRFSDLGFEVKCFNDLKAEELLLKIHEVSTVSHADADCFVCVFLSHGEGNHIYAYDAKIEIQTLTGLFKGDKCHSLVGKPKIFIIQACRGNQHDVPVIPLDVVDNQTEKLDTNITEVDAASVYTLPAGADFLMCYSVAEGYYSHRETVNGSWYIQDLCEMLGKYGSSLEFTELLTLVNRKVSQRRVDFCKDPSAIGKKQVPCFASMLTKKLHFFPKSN

Chain of Tyrosine-protein phosphatase non-receptor type 11 (Q06124 whole entry): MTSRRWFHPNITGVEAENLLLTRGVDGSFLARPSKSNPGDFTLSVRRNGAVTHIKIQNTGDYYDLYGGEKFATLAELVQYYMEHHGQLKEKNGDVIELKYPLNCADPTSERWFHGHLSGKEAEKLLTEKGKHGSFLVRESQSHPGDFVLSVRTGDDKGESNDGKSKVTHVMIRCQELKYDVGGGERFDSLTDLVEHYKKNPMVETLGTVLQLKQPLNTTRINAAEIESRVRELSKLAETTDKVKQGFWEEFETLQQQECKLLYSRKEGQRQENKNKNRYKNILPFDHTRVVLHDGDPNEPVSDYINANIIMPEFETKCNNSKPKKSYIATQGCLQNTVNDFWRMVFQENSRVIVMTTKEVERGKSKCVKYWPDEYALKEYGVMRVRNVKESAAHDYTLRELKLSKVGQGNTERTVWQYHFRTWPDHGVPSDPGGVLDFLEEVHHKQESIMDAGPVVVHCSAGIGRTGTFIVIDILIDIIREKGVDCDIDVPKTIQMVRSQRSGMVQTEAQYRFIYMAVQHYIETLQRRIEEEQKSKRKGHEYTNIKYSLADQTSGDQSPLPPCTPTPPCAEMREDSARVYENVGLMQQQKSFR
Chain of Mitochondrial peptide methionine sulfoxide reductase (P54149 whole entry): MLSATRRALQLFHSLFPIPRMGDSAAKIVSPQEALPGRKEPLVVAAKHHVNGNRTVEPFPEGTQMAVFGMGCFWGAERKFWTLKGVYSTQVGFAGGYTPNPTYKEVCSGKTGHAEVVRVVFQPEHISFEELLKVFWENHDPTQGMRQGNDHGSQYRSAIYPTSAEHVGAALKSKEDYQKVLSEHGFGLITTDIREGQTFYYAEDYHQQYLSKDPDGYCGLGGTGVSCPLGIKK
Chain of Dual specificity protein phosphatase 3 (P51452 whole entry): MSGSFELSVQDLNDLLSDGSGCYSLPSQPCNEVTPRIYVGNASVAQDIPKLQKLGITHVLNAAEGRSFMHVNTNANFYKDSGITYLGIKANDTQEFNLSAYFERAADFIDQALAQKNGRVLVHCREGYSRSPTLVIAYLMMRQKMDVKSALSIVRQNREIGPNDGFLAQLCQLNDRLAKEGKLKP
Chain of Melanocortin receptor 4 (P32245 whole entry): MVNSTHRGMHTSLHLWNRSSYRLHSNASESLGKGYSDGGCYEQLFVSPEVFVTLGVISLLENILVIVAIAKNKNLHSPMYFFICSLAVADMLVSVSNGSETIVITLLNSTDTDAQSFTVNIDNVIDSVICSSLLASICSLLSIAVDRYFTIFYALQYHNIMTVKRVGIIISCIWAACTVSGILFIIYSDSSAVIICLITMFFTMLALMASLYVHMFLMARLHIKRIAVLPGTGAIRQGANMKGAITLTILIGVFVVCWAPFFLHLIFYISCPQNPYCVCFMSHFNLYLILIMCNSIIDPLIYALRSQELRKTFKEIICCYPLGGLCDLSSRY
Chain of Tyrosine-protein phosphatase non-receptor type 5 (P54829 whole entry): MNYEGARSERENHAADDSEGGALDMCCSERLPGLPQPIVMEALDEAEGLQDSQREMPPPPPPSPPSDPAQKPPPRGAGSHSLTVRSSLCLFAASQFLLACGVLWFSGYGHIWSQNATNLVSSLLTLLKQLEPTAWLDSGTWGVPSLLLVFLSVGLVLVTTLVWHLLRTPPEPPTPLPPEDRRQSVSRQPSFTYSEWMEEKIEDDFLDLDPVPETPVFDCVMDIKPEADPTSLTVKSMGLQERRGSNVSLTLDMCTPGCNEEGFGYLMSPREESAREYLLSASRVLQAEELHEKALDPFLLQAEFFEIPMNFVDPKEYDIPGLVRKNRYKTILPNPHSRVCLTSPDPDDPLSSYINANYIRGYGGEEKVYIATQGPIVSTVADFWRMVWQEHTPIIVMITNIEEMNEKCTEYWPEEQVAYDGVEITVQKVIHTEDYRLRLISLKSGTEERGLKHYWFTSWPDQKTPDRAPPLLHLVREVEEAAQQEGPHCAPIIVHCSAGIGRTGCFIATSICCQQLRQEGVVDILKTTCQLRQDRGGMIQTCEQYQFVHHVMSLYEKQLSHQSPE
Chain of Potassium voltage-gated channel subfamily KQT member 2 (O88943 whole entry): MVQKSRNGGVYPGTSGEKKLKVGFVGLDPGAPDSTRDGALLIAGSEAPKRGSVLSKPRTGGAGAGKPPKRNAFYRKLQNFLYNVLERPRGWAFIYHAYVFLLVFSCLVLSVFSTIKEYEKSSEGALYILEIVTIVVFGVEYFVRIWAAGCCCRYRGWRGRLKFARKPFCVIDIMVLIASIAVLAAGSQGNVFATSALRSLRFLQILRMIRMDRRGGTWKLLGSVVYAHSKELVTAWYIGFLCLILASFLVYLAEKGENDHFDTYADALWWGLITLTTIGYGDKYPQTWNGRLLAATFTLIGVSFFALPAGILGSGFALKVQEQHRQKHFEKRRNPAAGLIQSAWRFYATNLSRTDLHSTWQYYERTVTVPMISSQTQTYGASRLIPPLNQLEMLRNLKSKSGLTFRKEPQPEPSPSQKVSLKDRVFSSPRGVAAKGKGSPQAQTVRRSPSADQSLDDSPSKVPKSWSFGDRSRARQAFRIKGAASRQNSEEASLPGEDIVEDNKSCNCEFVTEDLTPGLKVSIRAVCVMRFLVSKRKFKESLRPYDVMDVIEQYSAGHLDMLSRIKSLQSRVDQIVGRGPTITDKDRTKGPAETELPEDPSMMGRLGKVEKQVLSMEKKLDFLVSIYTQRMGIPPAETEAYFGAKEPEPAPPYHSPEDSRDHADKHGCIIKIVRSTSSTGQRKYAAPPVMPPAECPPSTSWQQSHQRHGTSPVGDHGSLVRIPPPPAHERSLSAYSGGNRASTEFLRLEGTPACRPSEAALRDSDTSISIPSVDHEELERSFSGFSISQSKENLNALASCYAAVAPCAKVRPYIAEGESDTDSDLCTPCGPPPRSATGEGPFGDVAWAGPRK

In the case of `CC1=C(C(=O)NC(C)c2ccc3c(c2)OCCO3)C2(CCC(C)CC2)OC1=O` (stereo not drawn), the IC50 [1] is reported as 12 µM (active).

For `CCc1ccc(C=C2SC(=S)N(CCCC(=O)Nc3ccc(C(=O)O)cc3)C2=O)cc1`, the IC50 [2] was 80 µM (inactive).

For `O=C(O)c1cc(-c2cc(F)c(F)cc2F)[nH]n1`, the EC50 [3] was > 100 µM (inactive).

For `CC1CCC(NC(=O)c2cccc(S(=O)(=O)N3CCN(C)CC3)c2)CC1` (stereo not drawn), the IC50 [4] was 4.17 µM (active), the IC50 [5] was 2.05 µM (active) and the IC50 [6] was 4.68 µM (active).

In the case of `COc1ccc(-c2cnc3c(NC(C)=O)cc(-c4ccccc4OC)cn23)cc1OC`, the EC50 (Melanocortin receptor 4) is reported as > 89.2 µM (inactive).

For `O=C(O)c1cc(-c2ccc(/C=N/N3C(=O)C4C5C=CC(C6CC56)C4C3=O)o2)ccc1Cl` (stereo not drawn), the IC50 (Aminopeptidase N) was 90.7 µM (active) and the IC50 [7] was 122 µM (inactive).

For `O=C(Nc1cccc2c(=O)[nH][nH]c(=O)c12)c1ccc([N+](=O)[O-])cc1`, the IC50 [8] was 3.01 µM (active), the IC50 [9] was 14.2 µM (active) and the IC50 [10] was 4.92 µM (active). The AC50 (Caspase-6) was 2.58 µM (active).
